Active and inactive are the calls of the source.
Experiments:
[1] = target: Luciferin 4-monooxygenase (Photinus pyralis, UniProt P08659); assay: inhibition of purified Photinus pyralis luciferase – biochemical, luminescence, dose response (AID 1891)
Nonstructural protein 1 = Nonstructural protein 1 (Influenza A virus, UniProt Q194T2); assay type: functional, Influenza A virus (A/California/07/2009(H1N1))
MDCK [2] = assay: MDCK cell cytotoxicity, dose response, cytotoxicity control (AID 540296); assay type: functional; settings: Canis lupus familiaris
[3] = Luminescence Cell-Based Dose Confirmation HTS to Identify Inhibitors of Platelet Dense Granule Release. [Related pubchem assays: 1663 (Primary HTS), 1678 (Summary of Project)]; assay type: functional
MDCK [4] = assay: antiviral activity against H1N1 influenza, dose response, cell-based, strain KY180 (AID 540254); assay type: functional; settings: Canis lupus familiaris
[5] = target: DNA dC->dU-editing enzyme APOBEC-3A (Homo sapiens, UniProt P31941); assay: Dose Response confirmation of small molecule APOBEC3A DNA Deaminase Inhibitors via a fluorescence-based single-stranded DNA deaminase assay. [Related pubchem assays (depositor defined):AID493011, AID493024]; assay type: functional
DNA dC->dU-editing enzyme APOBEC-3A, sequence (P31941 whole entry): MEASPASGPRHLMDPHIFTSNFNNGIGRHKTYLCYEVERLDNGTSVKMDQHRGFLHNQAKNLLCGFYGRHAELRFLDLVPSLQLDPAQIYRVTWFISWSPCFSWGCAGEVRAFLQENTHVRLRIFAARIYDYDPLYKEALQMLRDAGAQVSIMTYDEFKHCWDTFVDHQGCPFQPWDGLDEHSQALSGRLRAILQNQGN

A-375 = assay: proliferation inhibition in MITF-low A375 cells – cell-based, cherry-pick samples, set 2, counter-screen for MITF modulator project, dose response (AID 540335); assay type: functional; settings: Homo sapiens
[6] = target: DNA dC->dU-editing enzyme APOBEC-3G (Homo sapiens, UniProt Q9HC16); assay type: functional;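 further: Dose-response counterscreen measuring inhibition of APOBEC3G DNA deaminase activity, run while confirming APOBEC3A inhibitors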
DNA dC->dU-editing enzyme APOBEC-3G, sequence (Q9HC16 whole entry): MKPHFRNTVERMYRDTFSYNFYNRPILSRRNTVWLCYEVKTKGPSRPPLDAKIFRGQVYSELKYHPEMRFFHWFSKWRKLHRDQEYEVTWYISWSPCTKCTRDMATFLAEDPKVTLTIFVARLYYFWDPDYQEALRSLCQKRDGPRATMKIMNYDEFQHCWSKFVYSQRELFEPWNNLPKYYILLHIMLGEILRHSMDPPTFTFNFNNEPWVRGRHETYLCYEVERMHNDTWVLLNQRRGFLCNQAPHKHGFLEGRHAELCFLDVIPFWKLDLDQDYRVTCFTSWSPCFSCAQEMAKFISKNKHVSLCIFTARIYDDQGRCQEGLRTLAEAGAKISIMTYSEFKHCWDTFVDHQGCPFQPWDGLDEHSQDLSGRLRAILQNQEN

[7] = target: T1, Microphthalmia-associated transcription factor (Homo sapiens, UniProt O75030); assay: reducers of TRPM1 reporter luminescence, concentration series – cell-based, SK-MEL-5, cherry-picked, set 3, MITF inhibitor project, dose response (AID 493073); assay type: functional;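 further: SK-MEL-5 melanoma cells with luciferase driven by the MITF target TRPM1 promoter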
T1 sequence (O75030 whole entry): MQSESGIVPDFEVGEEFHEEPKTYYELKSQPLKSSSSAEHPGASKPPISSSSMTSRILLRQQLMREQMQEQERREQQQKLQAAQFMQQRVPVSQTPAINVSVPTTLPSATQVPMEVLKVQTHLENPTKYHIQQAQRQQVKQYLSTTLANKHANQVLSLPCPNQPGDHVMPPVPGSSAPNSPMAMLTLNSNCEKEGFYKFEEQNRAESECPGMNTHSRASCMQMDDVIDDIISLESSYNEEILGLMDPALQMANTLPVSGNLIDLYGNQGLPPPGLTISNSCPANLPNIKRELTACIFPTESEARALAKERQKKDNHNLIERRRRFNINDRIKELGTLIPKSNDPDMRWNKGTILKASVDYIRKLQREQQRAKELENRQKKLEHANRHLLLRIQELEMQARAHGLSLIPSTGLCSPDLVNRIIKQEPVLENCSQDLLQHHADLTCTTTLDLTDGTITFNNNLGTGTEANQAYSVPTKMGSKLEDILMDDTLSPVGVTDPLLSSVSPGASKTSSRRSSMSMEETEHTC

CAAX prenyl protease 2 = CAAX prenyl protease 2 (Homo sapiens, UniProt Q9Y256); assay: inhibition of Ras-converting CAAX protease Rce1 – biochemical, yeast membranes, quenched-peptide fluorescence, cherry-pick, dose response (AID 588849)
[8] = Luminescence Cell-Based Dose Retest to Confirm Inhibitors of Cancer Stem Cells. [Related pubchem assays (depositor defined):AID2717, AID2721]; assay type: functional; settings: Homo sapiens
[9] = viability loss of HMLE_sh_eGFP cells – cell-based, luminescence, counter-screen for HMLE_sh_ECad selective toxicity project, dose response (AID 463074); assay type: functional, Homo sapiens;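 further: HMLE human mammary epithelial cells expressing control shRNA against eGFP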
Cytochrome P450 3A4 = Cytochrome P450 3A4 (Homo sapiens, UniProt P08684);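 further: CYP3A4 tested as one member of a cytochrome P450 panel screen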
Cytochrome P450 3A4, sequence (P08684 whole entry): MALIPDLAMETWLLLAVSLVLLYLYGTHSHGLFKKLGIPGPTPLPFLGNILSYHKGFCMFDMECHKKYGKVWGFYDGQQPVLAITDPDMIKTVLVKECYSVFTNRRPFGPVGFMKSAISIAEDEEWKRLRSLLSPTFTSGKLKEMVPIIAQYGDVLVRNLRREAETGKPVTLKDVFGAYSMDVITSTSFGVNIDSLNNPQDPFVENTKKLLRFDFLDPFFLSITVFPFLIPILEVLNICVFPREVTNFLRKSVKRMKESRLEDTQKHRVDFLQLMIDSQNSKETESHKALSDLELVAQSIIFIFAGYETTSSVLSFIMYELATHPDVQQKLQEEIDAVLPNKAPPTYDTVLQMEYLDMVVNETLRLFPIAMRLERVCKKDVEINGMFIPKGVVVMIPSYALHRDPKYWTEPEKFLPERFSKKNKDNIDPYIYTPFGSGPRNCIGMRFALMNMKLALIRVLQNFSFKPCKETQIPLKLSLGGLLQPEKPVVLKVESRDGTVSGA

[10] = target: Voltage-gated inwardly rectifying potassium channel KCNH2 (Homo sapiens, UniProt Q12809); settings: Potency;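 further: confirmatory quantitative high-throughput screen measuring inhibition of hERG channel activity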
Voltage-gated inwardly rectifying potassium channel KCNH2, sequence (Q12809 whole entry): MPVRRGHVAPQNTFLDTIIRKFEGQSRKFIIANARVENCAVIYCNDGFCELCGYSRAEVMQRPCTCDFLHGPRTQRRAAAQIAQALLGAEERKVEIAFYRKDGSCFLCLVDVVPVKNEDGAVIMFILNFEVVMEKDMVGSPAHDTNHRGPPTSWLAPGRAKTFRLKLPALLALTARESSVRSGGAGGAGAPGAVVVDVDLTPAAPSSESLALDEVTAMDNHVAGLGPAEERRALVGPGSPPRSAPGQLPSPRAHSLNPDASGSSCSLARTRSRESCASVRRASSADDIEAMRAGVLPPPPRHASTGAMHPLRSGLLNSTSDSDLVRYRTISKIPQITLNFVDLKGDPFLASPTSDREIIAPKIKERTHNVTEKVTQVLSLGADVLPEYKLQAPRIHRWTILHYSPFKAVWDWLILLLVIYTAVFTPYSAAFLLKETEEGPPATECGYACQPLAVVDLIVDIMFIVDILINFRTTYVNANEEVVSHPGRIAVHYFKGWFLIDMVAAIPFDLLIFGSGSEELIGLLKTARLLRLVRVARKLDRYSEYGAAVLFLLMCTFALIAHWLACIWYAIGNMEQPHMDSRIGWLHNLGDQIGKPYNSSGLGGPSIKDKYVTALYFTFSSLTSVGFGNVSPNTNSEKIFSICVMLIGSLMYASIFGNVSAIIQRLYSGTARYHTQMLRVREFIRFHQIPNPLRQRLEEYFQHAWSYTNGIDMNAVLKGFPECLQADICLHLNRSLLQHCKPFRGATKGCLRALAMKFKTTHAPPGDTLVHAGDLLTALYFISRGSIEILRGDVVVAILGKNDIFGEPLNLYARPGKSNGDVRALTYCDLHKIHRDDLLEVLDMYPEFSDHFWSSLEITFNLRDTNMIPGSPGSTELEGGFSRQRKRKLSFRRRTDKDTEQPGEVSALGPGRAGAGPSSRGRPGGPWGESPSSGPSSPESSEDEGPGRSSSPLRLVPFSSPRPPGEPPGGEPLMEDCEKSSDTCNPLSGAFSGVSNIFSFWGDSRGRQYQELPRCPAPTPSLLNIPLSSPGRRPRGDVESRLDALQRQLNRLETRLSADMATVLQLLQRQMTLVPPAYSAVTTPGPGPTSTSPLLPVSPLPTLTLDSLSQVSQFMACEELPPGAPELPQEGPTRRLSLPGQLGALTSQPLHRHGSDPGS

[11] = target: 5-hydroxytryptamine receptor 5A (Homo sapiens, UniProt P47898); assay: Counterscreen for agonists of OPRM1-OPRD1 heterodimerization: luminescence-based cell-based high throughput dose response assay to identify agonists of 5-hydroxytryptamine (serotonin) 5A receptor (HTR5A). [Related pubchem assays (depositor defined):AID504326, AID504355, AID504692, AID504904, AID504905]; assay type: functional
5-hydroxytryptamine receptor 5A, sequence (P47898 whole entry): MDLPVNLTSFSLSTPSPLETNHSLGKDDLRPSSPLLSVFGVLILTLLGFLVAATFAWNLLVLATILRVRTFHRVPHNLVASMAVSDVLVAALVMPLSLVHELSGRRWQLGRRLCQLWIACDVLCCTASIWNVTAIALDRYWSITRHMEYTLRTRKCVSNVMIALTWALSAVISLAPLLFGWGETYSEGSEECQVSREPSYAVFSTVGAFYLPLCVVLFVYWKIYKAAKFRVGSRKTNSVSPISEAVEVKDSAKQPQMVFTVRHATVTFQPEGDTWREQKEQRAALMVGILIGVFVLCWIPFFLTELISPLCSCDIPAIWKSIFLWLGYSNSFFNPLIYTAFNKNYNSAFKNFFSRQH

[12] = target: T2, Short transient receptor potential channel 4 (Mus musculus, UniProt Q9QUQ5); assay: calcium entry via TRPC4 opening agents – cell-based, HEK293 TRPC4/mu-opioid, Fluo-4 calcium, dose response (AID 434937); assay type: functional
T2 sequence (Q9QUQ5 whole entry): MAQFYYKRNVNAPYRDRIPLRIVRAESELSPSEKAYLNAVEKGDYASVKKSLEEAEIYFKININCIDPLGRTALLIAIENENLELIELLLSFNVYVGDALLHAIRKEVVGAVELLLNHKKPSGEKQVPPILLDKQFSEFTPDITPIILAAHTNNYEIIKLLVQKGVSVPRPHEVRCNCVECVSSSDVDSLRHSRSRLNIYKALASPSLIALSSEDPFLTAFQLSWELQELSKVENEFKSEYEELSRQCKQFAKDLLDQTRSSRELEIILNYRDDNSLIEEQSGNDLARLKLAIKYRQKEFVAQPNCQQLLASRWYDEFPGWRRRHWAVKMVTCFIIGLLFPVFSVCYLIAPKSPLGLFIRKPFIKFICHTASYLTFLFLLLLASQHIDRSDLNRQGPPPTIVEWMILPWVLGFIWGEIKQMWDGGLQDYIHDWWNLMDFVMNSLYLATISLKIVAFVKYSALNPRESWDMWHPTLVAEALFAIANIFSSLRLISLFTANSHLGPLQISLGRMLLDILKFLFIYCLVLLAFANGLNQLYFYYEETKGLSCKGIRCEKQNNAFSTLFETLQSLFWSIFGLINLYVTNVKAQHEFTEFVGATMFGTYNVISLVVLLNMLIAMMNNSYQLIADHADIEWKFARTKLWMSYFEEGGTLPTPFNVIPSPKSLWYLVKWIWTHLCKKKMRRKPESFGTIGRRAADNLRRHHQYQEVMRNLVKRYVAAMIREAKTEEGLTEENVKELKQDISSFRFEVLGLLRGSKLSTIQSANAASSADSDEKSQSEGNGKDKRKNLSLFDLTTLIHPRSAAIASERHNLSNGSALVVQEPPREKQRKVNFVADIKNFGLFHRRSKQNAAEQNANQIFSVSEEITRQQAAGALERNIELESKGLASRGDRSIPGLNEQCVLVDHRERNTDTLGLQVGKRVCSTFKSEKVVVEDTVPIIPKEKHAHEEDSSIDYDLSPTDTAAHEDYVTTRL

Mu-type opioid receptor = Mu-type opioid receptor (Homo sapiens, UniProt P35372); assay: (§1) Counterscreen for agonists of heterodimerization of the mu 1 (OPRM1) and delta 1 (OPRD1) opioid receptors: Luminescence-based cell-based high throughput dose response assay to identify agonists of OPRM1 homodimerization.; assay type: functional
Mu-type opioid receptor, sequence (P35372 whole entry): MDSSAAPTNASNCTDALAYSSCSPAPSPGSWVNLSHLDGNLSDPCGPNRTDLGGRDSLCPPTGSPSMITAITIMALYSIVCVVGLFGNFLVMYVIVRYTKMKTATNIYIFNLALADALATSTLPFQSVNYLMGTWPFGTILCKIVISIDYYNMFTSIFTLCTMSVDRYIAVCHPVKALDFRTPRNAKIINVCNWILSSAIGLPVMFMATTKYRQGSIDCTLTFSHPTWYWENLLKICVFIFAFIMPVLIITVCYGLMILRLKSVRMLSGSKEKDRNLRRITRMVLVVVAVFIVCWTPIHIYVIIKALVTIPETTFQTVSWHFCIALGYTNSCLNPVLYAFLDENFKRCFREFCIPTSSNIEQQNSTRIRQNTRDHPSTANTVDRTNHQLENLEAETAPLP

[13] = target: Delta-type opioid receptor (Homo sapiens, UniProt P41143); assay: as §1, with “of OPRD1” for “of OPRM1”, “homodimerization. [Related pubchem assays (depositor defined):AID504326, AID504355, AID504692, AID504904, AID504905]” for “homodimerization.”; assay type: functional
Delta-type opioid receptor, sequence (P41143 whole entry): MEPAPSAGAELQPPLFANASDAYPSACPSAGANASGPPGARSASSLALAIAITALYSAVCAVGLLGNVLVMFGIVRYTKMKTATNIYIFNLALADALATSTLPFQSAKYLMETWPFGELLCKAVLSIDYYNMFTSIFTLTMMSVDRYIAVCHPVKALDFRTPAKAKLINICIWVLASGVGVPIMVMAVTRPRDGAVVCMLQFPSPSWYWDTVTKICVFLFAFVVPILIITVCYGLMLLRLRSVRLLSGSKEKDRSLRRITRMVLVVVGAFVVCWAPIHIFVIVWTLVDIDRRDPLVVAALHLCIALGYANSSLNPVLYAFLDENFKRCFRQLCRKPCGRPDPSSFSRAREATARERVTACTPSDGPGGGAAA

[14] = restored growth of temperature-sensitive Burl-1 yeast – whole organism, S. cerevisiae, Burl-1 ts mutant, luminescence, counter-screen for SUMOylation pathway inhibitor project, dose response (AID 463199); assay type: functional
[15] = target: Dual specificity tyrosine-phosphorylation-regulated kinase 1A (Rattus norvegicus, UniProt Q63470); assay type: biochemical, Homo sapiens
[16] = target: Dual specificity protein kinase CLK1 (Homo sapiens, UniProt P49759); assay: inhibition of human CLK1 activity – biochemical, cherry-picked samples, selectivity assay for Dyrk1A inhibitor project, dose response (AID 588811)
Dual specificity protein kinase CLK1, sequence (P49759 whole entry): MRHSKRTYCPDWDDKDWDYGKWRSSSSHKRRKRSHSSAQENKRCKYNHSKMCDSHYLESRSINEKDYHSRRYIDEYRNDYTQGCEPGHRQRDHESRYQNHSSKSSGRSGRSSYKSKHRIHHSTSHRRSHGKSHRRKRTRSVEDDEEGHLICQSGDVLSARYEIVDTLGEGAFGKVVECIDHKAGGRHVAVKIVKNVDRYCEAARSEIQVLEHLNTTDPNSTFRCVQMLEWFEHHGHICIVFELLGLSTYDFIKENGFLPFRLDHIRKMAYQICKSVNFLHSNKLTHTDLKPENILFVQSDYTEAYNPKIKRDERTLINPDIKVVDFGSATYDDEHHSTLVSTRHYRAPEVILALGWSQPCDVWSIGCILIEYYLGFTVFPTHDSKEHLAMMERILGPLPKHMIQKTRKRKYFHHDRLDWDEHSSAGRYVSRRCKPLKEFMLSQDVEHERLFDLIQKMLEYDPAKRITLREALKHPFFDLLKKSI

INS1 = assay: INS-1E survival protection against cytokine death – cell-based, luminescence, retest, dose response (AID 449756); assay type: functional; settings: Rattus norvegicus;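 further: cell death triggered by IL-1 beta plus TNF-alpha plus IFN-gamma mixture; protective hits raise ATP signal compared with cytokine alone wells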
BJ [17] = assay: BJ-TERT fibroblast viability loss – cell-based, RAS-independent, luminescence, dose response (AID 1933); assay type: functional; settings: Homo sapiens
cells [18] = assay type: functional, cell-based
[19] = loss of viability in HepG2 cells – cell-based, CellTiter-Glo, cherry-picked, cytotoxicity control for Shn3 inhibitor project, dose response (AID 624134); assay type: functional
[20] = Trypanosoma cruzi growth suppression in host cells – NIH3T3 host cells, beta-gal luminescence, confirmation (AID 2044); assay type: functional, cell-based;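 further: intracellular parasites grown in NIH/3T3 mouse fibroblasts as host cells; luminescent beta-galactosidase reporter signal from transgenic T. cruzi replicating inside host cells; inhibitors lower the luminescence signal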
cells [21] = assay type: functional, cell-based; remark: listed apart in the source
[22] = MIN6 cell viability loss – mouse insulinoma, cytotoxicity control, dose response (AID 2122); assay type: functional;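 further: confirmatory high-throughput counterscreen run to flag cytotoxic compounds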
[23] = general mammalian cell viability loss – activator set, cherry-pick, cytotoxicity control for miR-122 modulator project, dose response (AID 720690); assay type: functional, cell-based;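 further: HEK293T human cells scored for general mammalian cytotoxicity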
[24] = reduction of Shn3 3'UTR-driven luciferase in osteoblasts – cell-based, Clone20 osteoblasts, firefly luciferase, cherry-picked, dose response (AID 624132); assay type: functional;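 further: firefly luciferase luminescence from reporter carrying the Shn3 3'UTR in osteoblasts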
[25] = decrease of insulin promoter-GFP reporter – imaging, high-content screening, mouse beta cells (AID 1628); assay type: functional; settings: MIN6
[26] = DRD fibroblast viability loss – cell-based, non-viral oncogenic, luminescence, dose response (AID 1934); assay type: functional; settings: Homo sapiens
BJ [27] = assay: cells; assay type: functional, cell-based; settings: Homo sapiens
[28] = general mammalian cell viability loss – inhibitor set, cherry-pick, set 2, cytotoxicity control for miR-122 modulator project, dose response (AID 720697); assay type: functional, cell-based
[29] = non-specific 3'UTR reporter inhibition in Clone20-Shn3RL – cell-based, Renilla luciferase, cherry-picked, counter-screen for Shn3 inhibitor project, dose response (AID 624133); assay type: functional
BJ [30] = assay: BJ-TERT-LT-ST fibroblast viability loss – cell-based, RAS-independent, luminescence, dose response (AID 1935); assay type: functional; settings: Homo sapiens;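 further: BJ fibroblasts immortalized with TERT plus LT and ST oncogenes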
[31] = NIH3T3 cell viability loss – ATP luminescence, mouse fibroblasts, counter-screen, dose response (AID 2010); assay type: functional, cell-based;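 further: cells exposed to compound for about 90 hours before reading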
[32] = target: FAD-linked sulfhydryl oxidase ALR (Homo sapiens, UniProt P55789); assay: ALR-catalysed DTT oxidation blockers – biochemical, H2O2 detection, luminescence, cherry-pick, dose response (AID 493248)
FAD-linked sulfhydryl oxidase ALR, sequence (P55789 whole entry): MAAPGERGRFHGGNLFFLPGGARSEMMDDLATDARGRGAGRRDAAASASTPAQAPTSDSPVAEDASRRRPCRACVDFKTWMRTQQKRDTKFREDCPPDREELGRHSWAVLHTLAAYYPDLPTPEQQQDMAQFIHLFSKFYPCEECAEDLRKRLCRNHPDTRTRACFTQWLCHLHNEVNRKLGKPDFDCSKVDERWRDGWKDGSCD

Cytochrome P450 2C9 = Cytochrome P450 2C9 (Homo sapiens, UniProt P11712)
Cytochrome P450 2C9, sequence (P11712 whole entry): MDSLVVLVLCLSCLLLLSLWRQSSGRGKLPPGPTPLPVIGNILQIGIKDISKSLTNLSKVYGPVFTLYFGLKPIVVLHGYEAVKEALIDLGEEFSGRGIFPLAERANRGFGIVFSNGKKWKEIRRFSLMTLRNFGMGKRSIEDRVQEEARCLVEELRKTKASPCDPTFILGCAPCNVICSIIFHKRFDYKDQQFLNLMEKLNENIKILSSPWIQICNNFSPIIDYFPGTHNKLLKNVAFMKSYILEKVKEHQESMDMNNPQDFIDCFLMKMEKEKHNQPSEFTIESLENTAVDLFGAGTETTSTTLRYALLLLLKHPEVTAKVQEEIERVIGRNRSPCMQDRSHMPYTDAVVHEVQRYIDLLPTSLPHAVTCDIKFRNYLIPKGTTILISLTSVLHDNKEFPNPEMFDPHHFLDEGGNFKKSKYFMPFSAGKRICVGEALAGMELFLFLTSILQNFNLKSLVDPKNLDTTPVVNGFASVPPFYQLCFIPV

[33] = target: T2, Short transient receptor potential channel 4; assay: block of DAMGO-driven TRPC4 calcium entry – cell-based, HEK293 TRPC4/mu-opioid, Fluo-4 calcium, dose response (AID 434942); assay type: functional;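 further: potency of inhibitors blocking the TRPC4 calcium response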
[34] = target: T2, Short transient receptor potential channel 4; assay: SAR Analysis for the identification of selective inhibits of the transient receptor potential cation channel C4 (TRPC4): Automated Electrophysiology. [Related pubchem assays (depositor defined):AID2256]; assay type: functional
Cytochrome P450 1A2 = target: T3, Cytochrome P450 1A2 (Homo sapiens, UniProt P05177);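 further: PubChem cytochrome P450 panel assay, CYP1A2 panel member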
T3 sequence (P05177 whole entry): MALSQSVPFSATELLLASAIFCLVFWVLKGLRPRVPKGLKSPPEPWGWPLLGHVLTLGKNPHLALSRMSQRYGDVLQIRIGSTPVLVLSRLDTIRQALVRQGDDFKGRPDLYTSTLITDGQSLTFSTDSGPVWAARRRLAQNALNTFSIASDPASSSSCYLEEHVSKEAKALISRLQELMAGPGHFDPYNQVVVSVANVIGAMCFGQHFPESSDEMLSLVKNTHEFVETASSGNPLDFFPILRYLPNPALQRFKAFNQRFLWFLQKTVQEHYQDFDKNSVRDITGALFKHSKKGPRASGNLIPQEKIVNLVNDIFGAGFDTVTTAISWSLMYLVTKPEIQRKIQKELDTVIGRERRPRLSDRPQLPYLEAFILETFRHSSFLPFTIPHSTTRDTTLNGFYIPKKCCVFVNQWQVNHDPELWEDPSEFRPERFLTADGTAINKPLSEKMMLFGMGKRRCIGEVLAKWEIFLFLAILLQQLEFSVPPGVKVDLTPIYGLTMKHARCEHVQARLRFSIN

Nonstructural protein 1, sequence (Q194T2 whole entry): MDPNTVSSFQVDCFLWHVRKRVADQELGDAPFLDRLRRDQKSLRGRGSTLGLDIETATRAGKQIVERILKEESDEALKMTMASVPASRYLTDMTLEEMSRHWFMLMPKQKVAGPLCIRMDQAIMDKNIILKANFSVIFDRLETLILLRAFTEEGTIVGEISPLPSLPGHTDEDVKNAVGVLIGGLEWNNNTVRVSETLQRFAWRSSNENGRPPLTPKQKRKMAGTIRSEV

SMILES: COc1ccc(N2CCN(CCCN)CC2)cc1
- EC50 [1]: > 112 µM (not active)
- IC50 (Nonstructural protein 1): 39.8 µM (active)
- CC50 (MDCK [2]): > 40 µM (active)
- EC50 [3]: > 112 µM (not active)
- IC50 (MDCK [4]): 23 µM (active)

SMILES: CCN1CCN(c2ccc(S(=O)(=O)N3CCOCC3)cc2NC(=O)/C=C/c2ccc([N+](=O)[O-])cc2)CC1
- IC50 [5]: 8.67 µM (active)
- AC50 (A-375): 28.6 µM (active)
- IC50 [6]: 7.56 µM (active)
- AC50 [7]: 8.13 µM (active)

SMILES: Cc1c(CCC(=O)O)c(=O)oc2cc(OCc3cccc(F)c3)ccc12
- AC50 (CAAX prenyl protease 2): 12.1 µM (active)

SMILES: O=C1c2ccccc2C(=O)N1CC#CCN1CCN(C(c2ccccc2)c2ccccc2)CC1
- AC50 [8]: 2.06 µM (active)
- AC50 [9]: 25.2 µM (active)

SMILES: CCn1c(=O)c2[nH]c(-c3ccccc3)nc2n(CC)c1=O
- AC50 (Cytochrome P450 3A4): 3.98 µM (inconclusive)
- AC50 [10]: 35.5 µM (inconclusive)

SMILES: CC(=O)Nc1ccc(CN2CCCC(C(=O)c3cccc(C(F)(F)F)c3)C2)cc1 (configuration not stated)
- EC50 [11]: > 92.5 µM (inactive)
- EC50 [12]: 1.68 µM (active)
- EC50 (Mu-type opioid receptor): > 92.5 µM (inactive)
- EC50 [13]: 39.4 µM (inactive)

SMILES: O=C1CN(C(=O)COC(=O)COc2ccc3c(c2)CCC3)c2ccccc2N1
- AC50 [14]: 48.6 µM (active)

SMILES: COc1ccc(C(=O)c2sc(Nc3ccccc3F)nc2N)cc1
- AC50 [15]: 1.63 µM (active)
- AC50 [16]: 3.41 µM (active)

SMILES: Cc1ccc(Nc2c(-c3ccccn3)nc3cc(C)ccn23)cc1
- AC50 (INS1): 4.81 µM (active)
- EC50 (BJ [17]): 7.37 µM (active)
- EC50 (cells [18]): 49.3 µM (active)
- AC50 [19]: 4.06 µM (active)
- EC50 [20]: 0.951 µM (active)
- EC50 (cells [21]): 4.69 µM (active)
- IC50 [22]: 0.61 µM (active)
- AC50 [23]: 15.5 µM (active)
- AC50 [24]: 1.36 µM (active)
- IC50 [25]: 1.7 µM (active)
- EC50 [26]: 13.2 µM (active)
- EC50 (BJ [27]): 12.2 µM (active)
- AC50 [28]: 5.48 µM (active)
- AC50 [29]: 61.3 µM (active)
- EC50 (BJ [30]): 7.83 µM (inconclusive)
- EC50 [31]: 4.56 µM (active)

SMILES: Cn1c(-c2ccc(F)cc2)cnc1NCc1ccc(F)cc1
- AC50 [32]: 4.7 µM (active)
- AC50 (Cytochrome P450 2C9): 20 µM (inconclusive)
- EC50 [33]: 0.749 µM (active)
- IC50 [34]: 4.28 µM (active)
- AC50 (Cytochrome P450 1A2): 8.91 µM (inconclusive)
